According to patent US12473278B2 (Industry—University Cooperation Foundation Hangyang …, priority 2019, dated 2025):
Where two headings read alike, the source gives them in different places.

What was measured:
[1] = molecular target: RAFI (Homo sapiens (Human), UniProt P04049); assay: Kinase panel screening; settings: read-out: % inhibition rate
From the text: (§1) Measurement of Inhibitory Activity Against Various Protein Kinases

[2] = molecular target: T1, FLT3 (Homo sapiens (Human), UniProt P36888); assay: Measurement of FLT3 enzyme activity; format: biochemical
From the text: Measurement of FLT3 Enzyme Activity
A change in FLT3 enzyme activity by treatment with the benzimidazole derivatives of the following Table 1 according to the present invention was confirmed by IC50.

[3] = molecular target: T1, FLT3; assay: Kinase panel screening; settings: FLT3; single dose of 10 μM
From the text: as §1

[4] = system: FLT3 (ITD); assay: Kinase panel screening; settings: single dose of 10 μM
From the text: as §1

[5] = molecular target: FMS (Homo sapiens (Human), UniProt P07333); assay: Kinase panel screening; format: biochemical
Chain of FMS (P07333 20-972, species assumed): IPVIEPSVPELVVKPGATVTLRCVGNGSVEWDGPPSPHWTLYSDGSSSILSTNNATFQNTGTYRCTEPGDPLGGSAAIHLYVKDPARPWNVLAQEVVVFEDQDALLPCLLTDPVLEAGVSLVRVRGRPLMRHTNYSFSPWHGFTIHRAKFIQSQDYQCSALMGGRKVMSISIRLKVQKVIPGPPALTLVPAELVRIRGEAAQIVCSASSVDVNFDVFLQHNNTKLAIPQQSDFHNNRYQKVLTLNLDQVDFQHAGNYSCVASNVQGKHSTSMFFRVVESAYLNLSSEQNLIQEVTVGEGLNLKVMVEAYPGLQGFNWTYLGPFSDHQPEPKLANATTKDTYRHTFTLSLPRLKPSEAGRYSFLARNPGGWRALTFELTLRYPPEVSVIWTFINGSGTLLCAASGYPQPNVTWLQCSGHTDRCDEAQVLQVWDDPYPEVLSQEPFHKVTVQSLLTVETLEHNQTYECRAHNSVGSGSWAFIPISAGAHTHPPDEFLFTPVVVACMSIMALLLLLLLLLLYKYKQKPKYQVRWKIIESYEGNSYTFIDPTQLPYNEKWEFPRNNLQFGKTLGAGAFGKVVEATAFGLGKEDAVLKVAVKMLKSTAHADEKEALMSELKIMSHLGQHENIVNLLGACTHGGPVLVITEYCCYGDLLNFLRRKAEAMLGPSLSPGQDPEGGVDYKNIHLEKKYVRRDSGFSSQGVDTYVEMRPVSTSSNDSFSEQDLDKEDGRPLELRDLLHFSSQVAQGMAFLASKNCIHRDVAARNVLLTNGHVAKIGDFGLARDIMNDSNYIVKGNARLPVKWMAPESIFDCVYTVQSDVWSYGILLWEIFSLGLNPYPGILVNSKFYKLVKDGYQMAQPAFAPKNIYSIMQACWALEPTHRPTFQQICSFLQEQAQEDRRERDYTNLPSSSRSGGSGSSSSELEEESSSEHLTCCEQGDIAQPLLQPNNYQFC

[6] = molecular target: FGFR3 (Homo sapiens (Human), UniProt P22607); assay: Kinase panel screening; settings: read-out: Staurosporine IC50; FGFR3; control compound per footnote b
Chain of FGFR3 (P22607 23-806, species assumed): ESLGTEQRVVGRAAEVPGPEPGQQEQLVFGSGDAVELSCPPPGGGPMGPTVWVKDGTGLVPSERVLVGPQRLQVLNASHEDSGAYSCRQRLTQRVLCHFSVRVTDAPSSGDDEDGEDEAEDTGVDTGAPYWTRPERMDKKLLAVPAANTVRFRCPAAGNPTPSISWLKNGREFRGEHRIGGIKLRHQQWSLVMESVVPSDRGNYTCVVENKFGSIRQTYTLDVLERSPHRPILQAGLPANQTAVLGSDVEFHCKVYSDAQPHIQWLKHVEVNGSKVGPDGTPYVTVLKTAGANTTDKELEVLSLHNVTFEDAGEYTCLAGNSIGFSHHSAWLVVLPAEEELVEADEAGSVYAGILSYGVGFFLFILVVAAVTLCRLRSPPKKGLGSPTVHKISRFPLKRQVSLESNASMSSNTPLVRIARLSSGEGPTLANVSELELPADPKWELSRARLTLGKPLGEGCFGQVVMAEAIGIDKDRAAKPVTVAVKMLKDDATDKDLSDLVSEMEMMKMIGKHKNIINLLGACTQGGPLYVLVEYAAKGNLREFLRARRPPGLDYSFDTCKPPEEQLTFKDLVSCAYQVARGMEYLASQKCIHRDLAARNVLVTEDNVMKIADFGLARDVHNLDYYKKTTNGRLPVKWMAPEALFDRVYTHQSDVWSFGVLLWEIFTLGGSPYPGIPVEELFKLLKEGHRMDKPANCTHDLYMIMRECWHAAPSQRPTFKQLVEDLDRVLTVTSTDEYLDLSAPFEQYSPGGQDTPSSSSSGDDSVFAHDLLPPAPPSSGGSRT
From the text: as §1

[7] = FLT3 enzyme activity, read-out: FLT3 (IC50)
[8] = FLT3 kinase activity, read-out: IC50 against FLT3

T1 sequence (P36888 27-993): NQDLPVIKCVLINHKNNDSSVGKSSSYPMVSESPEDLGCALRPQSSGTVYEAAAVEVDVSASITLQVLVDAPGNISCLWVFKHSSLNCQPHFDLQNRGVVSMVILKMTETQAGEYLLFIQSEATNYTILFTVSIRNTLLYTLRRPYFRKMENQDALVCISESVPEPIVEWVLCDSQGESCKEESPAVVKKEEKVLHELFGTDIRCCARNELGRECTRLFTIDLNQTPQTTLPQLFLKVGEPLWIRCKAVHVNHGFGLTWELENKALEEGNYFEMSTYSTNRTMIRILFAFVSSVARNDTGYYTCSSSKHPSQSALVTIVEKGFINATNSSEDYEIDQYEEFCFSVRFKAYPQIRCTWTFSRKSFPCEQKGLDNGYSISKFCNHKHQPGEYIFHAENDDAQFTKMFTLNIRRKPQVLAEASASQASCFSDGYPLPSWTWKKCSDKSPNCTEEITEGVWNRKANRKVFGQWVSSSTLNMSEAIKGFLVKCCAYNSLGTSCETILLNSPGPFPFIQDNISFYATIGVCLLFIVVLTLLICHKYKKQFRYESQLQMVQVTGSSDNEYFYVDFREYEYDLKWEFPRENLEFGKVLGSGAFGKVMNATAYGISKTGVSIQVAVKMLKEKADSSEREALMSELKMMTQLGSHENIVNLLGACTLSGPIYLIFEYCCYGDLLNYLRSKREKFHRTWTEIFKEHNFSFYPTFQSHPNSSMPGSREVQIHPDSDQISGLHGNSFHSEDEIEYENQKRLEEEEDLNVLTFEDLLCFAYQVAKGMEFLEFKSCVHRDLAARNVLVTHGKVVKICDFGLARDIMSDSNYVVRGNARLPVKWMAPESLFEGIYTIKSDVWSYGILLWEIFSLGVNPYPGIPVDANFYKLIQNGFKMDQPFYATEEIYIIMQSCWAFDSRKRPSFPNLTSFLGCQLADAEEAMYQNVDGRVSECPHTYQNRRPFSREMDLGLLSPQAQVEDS
Chain of RAFI (P04049 whole entry): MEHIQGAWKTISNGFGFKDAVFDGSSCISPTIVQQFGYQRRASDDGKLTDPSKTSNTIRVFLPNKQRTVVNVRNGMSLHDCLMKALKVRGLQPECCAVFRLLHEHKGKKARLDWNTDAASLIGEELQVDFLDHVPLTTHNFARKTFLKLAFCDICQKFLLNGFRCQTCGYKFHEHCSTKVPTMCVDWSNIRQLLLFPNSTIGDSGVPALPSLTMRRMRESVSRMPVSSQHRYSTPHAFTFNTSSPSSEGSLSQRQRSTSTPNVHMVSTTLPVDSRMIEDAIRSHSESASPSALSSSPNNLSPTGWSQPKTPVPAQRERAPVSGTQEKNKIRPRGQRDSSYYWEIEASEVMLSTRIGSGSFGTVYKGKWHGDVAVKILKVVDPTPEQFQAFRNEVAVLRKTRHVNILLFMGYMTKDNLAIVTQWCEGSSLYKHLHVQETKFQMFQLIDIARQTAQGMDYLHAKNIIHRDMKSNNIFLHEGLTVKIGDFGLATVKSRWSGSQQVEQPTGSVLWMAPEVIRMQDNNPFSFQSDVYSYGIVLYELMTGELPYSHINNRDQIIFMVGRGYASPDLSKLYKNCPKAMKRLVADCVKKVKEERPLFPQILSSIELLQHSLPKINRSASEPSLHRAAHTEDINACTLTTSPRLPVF

| SMILES | IC50 [2, 7] | further results |
| --- | --- | --- |
| Cc1oncc1C(=O)Nc1ccc2[nH]c(-c3cc(N4CCN(C)CC4)cc(C(F)(F)F)c3)nc2c1 [Compound 5a, 5-methyl-N-(2-(3-(4-methylpiperazin-1-yl)-5-(trifluoromethyl)phenyl)-1H-benz[d]imidazol-5-yl)isoxazole-4-carboxamide] | < 3 µM | inhibition at 10 µM [1]: 8.47%; IC50 [2, 8]: 0.495 µM; % inhibition rate [3]: 89.97%; % inhibition rate [4]: 88.48%; inhibition at 10 µM ([5]; read-out: % inhibition rate): 0%; activity against other protein kinases, particularly FMS (in words) ([5]; single dose of 10 μM): did not exhibit significant activity |
| Cc1oncc1C(=O)Nc1ccc2[nH]c(-c3ccc(N4CCOCC4)c(C(F)(F)F)c3)nc2c1 [Compound 5c, 5-methyl-N-(2-(4-morpholino-3-(trifluoromethyl)phenyl)-1H-benz[d]imidazol-5-yl)isoxazole-4-carboxamide] | 3 to 10 µM | IC50 [2, 8]: 10 µM |
| Cc1cn(-c2cc(-c3nc4cc(NC(=O)c5cnoc5C)ccc4[nH]3)cc(C(F)(F)F)c2)cn1 [Compound 5d, 5-methyl-N-(2-(3-(4-methyl-1H-imidazol-1-yl)-5-(trifluoromethyl)phenyl)-1H-benz[d]imidazol-5-yl)isoxazole-4-carboxamide] | < 3 µM |  |
| Cc1oncc1C(=O)Nc1ccc2[nH]c(-c3cc(-n4cncc4C)cc(C(F)(F)F)c3)nc2c1 [Compound 5e, 5-methyl-N-(2-(3-(5-methyl-1H-imidazol-1-yl)-5-(trifluoromethyl)phenyl)-1H-benz[d]imidazol-5-yl)isoxazole-4-carboxamide] | < 3 µM |  |
| Cc1oncc1C(=O)Nc1ccc2[nH]c(-c3cc(-n4ccnc4C)cc(C(F)(F)F)c3)nc2c1 [Compound 5f, 5-methyl-N-(2-(3-(2-methyl-1H-imidazol-1-yl)-5-(trifluoromethyl)phenyl)-1H-benz[d]imidazol-5-yl)isoxazol-4-carboxamide] | > 10 µM |  |
| Cc1oncc1C(=O)Nc1ccc2[nH]c(-c3cc(F)cc(C(F)(F)F)c3)nc2c1 [Compound 5h, N-(2-(3-fluoro-5-(trifluoromethyl)phenyl)-1H-benz[d]imidazol-5-yl)-5-methylisoxazole-4-carboxamide] | > 10 µM |  |
| Cc1oncc1C(=O)Nc1ccc2[nH]c(-c3cc(OC4CCN(C)CC4)cc(C(F)(F)F)c3)nc2c1 [Compound 5i, 5-methyl-N-(2-(3-((1-methylpiperidin-4-yl)oxy)-5-(trifluoromethyl)phenyl)-1H-benz[d]imidazol-5-yl)isoxazole-4-carboxamide] | 3 to 10 µM |  |
| Cc1oncc1C(=O)Nc1cccc2[nH]c(-c3cc(N4CCN(C)CC4)cc(C(F)(F)F)c3)nc12 [Compound 6a] | < 3 µM |  |
| O=C(Nc1ccc2[nH]nc(-c3ccncc3)c2c1)[C@@H]1CCN(CC(=O)N2CCN(c3ccc(-c4ncccn4)cc3)CC2)C1 [SCH772984, reference compound] |  | IC50 [6]: 0.0147 µM |

Further lines, with some results ahead:

| IC50 [2, 7] | SMILES | further results |
| --- | --- | --- |
| > 10 µM | Cc1oncc1C(=O)Nc1ccc2[nH]c(-c3ccc(N4CCN(C)CC4)c(C(F)(F)F)c3)nc2c1 [Compound 5j, 5-methyl-N-(2-(4-(4-methylpiperazin-1-yl)-3-(trifluoromethyl)phenyl)-1H-benz[d]imidazol-5-yl)isoxazole-4-carboxamide] |  |
| 3 to 10 µM | Cc1oncc1C(=O)Nc1ccc2[nH]c(-c3ccc(Cl)c(C(F)(F)F)c3)nc2c1 [Compound 5k, N-(2-(4-chloro-3-(trifluoromethyl)phenyl)-1H-benz[d]imidazol-5-yl)-5-methylisoxazole-4-carboxamide] |  |
| 3 to 10 µM | Cc1oncc1C(=O)Nc1ccc2[nH]c(-c3ccc(Cl)cc3)nc2c1 [Compound 5l, N-(2-(4-chlorophenyl)-1H-benz[d]imidazol-5-yl)-5-methylisoxazole-4-carboxamide] |  |
| 3 to 10 µM | CCN1CCN(Cc2cc(-c3nc4cc(NC(=O)c5cnoc5C)ccc4[nH]3)cc(C(F)(F)F)c2)CC1 [Compound 5m, N-(2-(3-((4-ethylpiperazin-1-yl)methyl)-5-(trifluoromethyl)phenyl)-1H-benz[d]imidazol-5-yl)-5-methylisoxazole-4-carboxamide] |  |
| 3 to 10 µM | CCN1CCN(Cc2ccc(-c3nc4cc(NC(=O)c5cnoc5C)ccc4[nH]3)cc2C(F)(F)F)CC1 [Compound 5n, N-(2-(4-((4-ethylpiperazin-1-yl)methyl)-3-(trifluoromethyl)phenyl)-1H-benz[d]imidazol-5-yl)-5-methylisoxazole-4-carboxamide] |  |
| > 10 µM | CC(=O)N1CCC(c2nc3cc(NC(=O)c4cnoc4C)ccc3[nH]2)CC1 [Compound 5o, N-(2-(1-acetylpiperidin-4-yl)-1H-benz[d]imidazol-5-yl)-5-methylisoxazole-4-carboxamide] |  |
| > 10 µM | Cc1oncc1C(=O)Nc1ccc2[nH]c(C3CCCC3)nc2c1 [Compound 5p, N-(2-cyclopentyl-1H-benz[d]imidazol-5-yl)-5-methylisoxazole-4-carboxamide] |  |
| > 10 µM | Cc1oncc1C(=O)Nc1cccc2[nH]c(-c3ccc(N4CCOCC4)c(C(F)(F)F)c3)nc12 [Compound 6b, 5-methyl-N-(2-(4-morpholino-3-(trifluoromethyl)phenyl)-1H-benz[d]imidazol-4-yl)isoxazole-4-carboxamide] |  |
| 3 to 10 µM | Cc1cn(-c2cc(-c3nc4c(NC(=O)c5cnoc5C)cccc4[nH]3)cc(C(F)(F)F)c2)cn1 [Compound 6c, 5-methyl-N-(2-(3-(4-methyl-1H-imidazol-1-yl)-5-(trifluoromethyl)phenyl)-1H-benz[d]imidazol-4-yl)isoxazole-4-carboxamide] |  |
